# Results as given in patent publication US20140106968A1, “SUBSTITUTED 1,2,4-TRIAZINE-3,5-DIONES AS HERBICIDES” (E I Du Pont De Nemours and Company, priority 2012, published 2014).
# Key:
# Type in all cases: in vivo
# [1] = system: velvetleaf (Abutilon theophrasti); test: Test A greenhouse pre-/postemergence herbicide test, velvetleaf; conditions: 0 to 100 scale, 0 no effect, 100 complete control, approx. 10 days
# Source text: (§1) Seeds of plant species selected from barnyardgrass (Echinochloa crus-galli), large (Lg) crabgrass (Digitaria sanguinalis), giant foxtail (Setaria faberii), morningglory (Ipomoea spp.), pigweed (redroot pigweed, Amaranthus retroflexus), velvetleaf (Abutilon theophrasti), winter wheat (Triticum aestivum), and corn (Zea mays) were planted into a blend of loam soil and sand and treated preemergence with a directed soil spray using test chemicals formulated in a non-phytotoxic solvent mixture which included a surfactant. At the same time these species were also treated with postemergence applications of test compounds formulated in the same manner. Plants ranged in height from 2 to 10 cm and were in the one- to two-leaf stage for the postemergence treatment. Treated plants and untreated controls were maintained in a greenhouse for approximately 10 days, after which time all treated plants were visually compared to untreated controls and visually evaluated for injury. Plant response ratings, summarized in Table A, are based on a 0 to 100 scale where 0 is no effect and 100 is complete control. A dash (-) response means no test result.
# [2] = system: barnyardgrass (Echinochloa crus-galli); test: Test B flooded paddy test, barnyardgrass; conditions: scale of 0 to 100, 0 no effect, 100 complete control, 13 to 15 days
# Description: (§2) Plant species in the flooded paddy test selected from rice (Oryza sativa), small-flower umbrella sedge (Cyperus difformis), duck salad (Heteranthera limosa), and barnyardgrass (Echinochloa crus-galli) were grown to the 2-leaf stage for testing. At time of treatment, test pots were flooded to 3 cm above the soil surface, treated by application of test compounds directly to the paddy water, and then maintained at that water depth for the duration of the test. Treated plants and controls were maintained in a greenhouse for 13 to 15 days, after which time all species were visually compared to controls and visually evaluated. Plant response ratings, summarized in Table B, are based on a scale of 0 to 100 where 0 is no effect and 100 is complete control. A dash (-) response means no test result.
# [3] = system: large (Lg) crabgrass (Digitaria sanguinalis); test: Test A greenhouse pre-/postemergence herbicide test, large crabgrass; conditions: 0 to 100 scale, 0 no effect, 100 complete control, approx. 10 days
# Source text: as §1
# [4] = system: corn (Zea mays); test: Test A greenhouse pre-/postemergence herbicide test, corn; conditions: 0 to 100 scale, 0 no effect, 100 complete control, approx. 10 days
# Source text: as §1
# [5] = system: rice (Oryza sativa); test: Test B flooded paddy test, rice; conditions: scale of 0 to 100, 0 no effect, 100 complete control, 13 to 15 days
# Description: as §2
# [6] = system: duck salad (Heteranthera limosa); test: Test B flooded paddy test, duck salad; conditions: scale of 0 to 100, 0 no effect, 100 complete control, 13 to 15 days
# Description: as §2
# [7] = system: giant foxtail (Setaria faberii); test: Test A greenhouse pre-/postemergence herbicide test, giant foxtail; conditions: 0 to 100 scale, 0 no effect, 100 complete control, approx. 10 days
# Source text: as §1
# [8] = system: pigweed (redroot pigweed, Amaranthus retroflexus); test: Test A greenhouse pre-/postemergence herbicide test, pigweed; conditions: 0 to 100 scale, 0 no effect, 100 complete control, approx. 10 days
# Source text: as §1
# [9] = system: winter wheat (Triticum aestivum); test: Test A greenhouse pre-/postemergence herbicide test, winter wheat; conditions: 0 to 100 scale, 0 no effect, 100 complete control, approx. 10 days
# Source text: as §1
# [10] = system: small-flower umbrella sedge (Cyperus difformis); test: Test B flooded paddy test, small-flower umbrella sedge; conditions: scale of 0 to 100, 0 no effect, 100 complete control, 13 to 15 days
# Description: as §2
# [11] = system: morningglory (Ipomoea spp.); test: Test A greenhouse pre-/postemergence herbicide test, morningglory; conditions: 0 to 100 scale, 0 no effect, 100 complete control, approx. 10 days
# Source text: as §1
# [12] = system: barnyardgrass (Echinochloa crus-galli); test: Test A greenhouse pre-/postemergence herbicide test, barnyardgrass; conditions: 0 to 100 scale, 0 no effect, 100 complete control, approx. 10 days
# Source text: as §1
smiles,measurement,setting,value
"Cn1nc(C(=O)C2=C(O)CCCC2=O)c(=O)n(CCS(=O)(=O)CC2CC2)c1=O [Compound 3, 4-[2-[(cyclopropylmethyl)sulfonyl]ethyl]-6-[(2-hydroxy-6-oxo-1-cyclohexen-1-yl)carbonyl]-2-methyl-1,2,4-triazine-3,5(2H,4H)-dione]","Plant response rating, Velvetleaf",[1]; 31 g ai/ha Postemergence,100
same,"Plant response rating, Velvetleaf",[1]; 31 g ai/ha Preemergence,0
same,"Plant response rating, Velvetleaf",[1]; 125 g ai/ha Postemergence,100
same,"Plant response rating, Velvetleaf",[1]; 125 g ai/ha Preemergence,30
same,"Plant response rating, Barnyardgrass",[2]; 31 g ai/ha Flood,0
same,"Plant response rating, Barnyardgrass",[2]; 62 g ai/ha Flood,0
same,"Plant response rating, Barnyardgrass",[2]; 125 g ai/ha Flood,0
same,"Plant response rating, Barnyardgrass",[2]; 250 g ai/ha Flood,20
same,"Plant response rating, Crabgrass, Large",[3]; 31 g ai/ha Postemergence,30
same,"Plant response rating, Crabgrass, Large",[3]; 31 g ai/ha Preemergence,10
same,"Plant response rating, Crabgrass, Large",[3]; 125 g ai/ha Postemergence,90
same,"Plant response rating, Crabgrass, Large",[3]; 125 g ai/ha Preemergence,40
same,"Plant response rating, Corn",[4]; 31 g ai/ha Postemergence,0
same,"Plant response rating, Corn",[4]; 31 g ai/ha Preemergence,0
same,"Plant response rating, Corn",[4]; 125 g ai/ha Postemergence,0
same,"Plant response rating, Corn",[4]; 125 g ai/ha Preemergence,0
same,"Plant response rating, Rice",[5]; 31 g ai/ha Flood,0
same,"Plant response rating, Rice",[5]; 62 g ai/ha Flood,0
same,"Plant response rating, Rice",[5]; 125 g ai/ha Flood,0
same,"Plant response rating, Rice",[5]; 250 g ai/ha Flood,30
same,"Plant response rating, Ducksalad",[6]; 31 g ai/ha Flood,0
same,"Plant response rating, Ducksalad",[6]; 62 g ai/ha Flood,0
same,"Plant response rating, Ducksalad",[6]; 125 g ai/ha Flood,0
same,"Plant response rating, Ducksalad",[6]; 250 g ai/ha Flood,85
same,"Plant response rating, Foxtail, Giant",[7]; 31 g ai/ha Postemergence,0
same,"Plant response rating, Foxtail, Giant",[7]; 31 g ai/ha Preemergence,0
same,"Plant response rating, Foxtail, Giant",[7]; 125 g ai/ha Postemergence,40
same,"Plant response rating, Foxtail, Giant",[7]; 125 g ai/ha Preemergence,0
same,"Plant response rating, Pigweed",[8]; 31 g ai/ha Postemergence,40
same,"Plant response rating, Pigweed",[8]; 31 g ai/ha Preemergence,20
same,"Plant response rating, Pigweed",[8]; 125 g ai/ha Postemergence,100
same,"Plant response rating, Pigweed",[8]; 125 g ai/ha Preemergence,100
same,"Plant response rating, Wheat",[9]; 31 g ai/ha Postemergence,0
same,"Plant response rating, Wheat",[9]; 31 g ai/ha Preemergence,0
same,"Plant response rating, Wheat",[9]; 125 g ai/ha Postemergence,30
same,"Plant response rating, Wheat",[9]; 125 g ai/ha Preemergence,10
same,"Plant response rating, Sedge, Umbrella",[10]; 31 g ai/ha Flood,0
same,"Plant response rating, Sedge, Umbrella",[10]; 62 g ai/ha Flood,0
same,"Plant response rating, Sedge, Umbrella",[10]; 125 g ai/ha Flood,50
same,"Plant response rating, Sedge, Umbrella",[10]; 250 g ai/ha Flood,75
same,"Plant response rating, Morningglory",[11]; 31 g ai/ha Postemergence,60
same,"Plant response rating, Morningglory",[11]; 125 g ai/ha Postemergence,60
same,"Plant response rating, Morningglory",[11]; 125 g ai/ha Preemergence,10
same,"Plant response rating, Barnyardgrass",[12]; 31 g ai/ha Postemergence,20
same,"Plant response rating, Barnyardgrass",[12]; 31 g ai/ha Preemergence,0
same,"Plant response rating, Barnyardgrass",[12]; 125 g ai/ha Postemergence,90
same,"Plant response rating, Barnyardgrass",[12]; 125 g ai/ha Preemergence,40
"Cn1nc(C(=O)C2=C(O)CCCC2=O)c(=O)n(CCSCC2CC2)c1=O [Compound 4, 4-[2-[(cyclopropylmethyl)thio]ethyl]-6-[(2-hydroxy-6-oxo-1-cyclohexen-1-yl)carbonyl]-2-methyl-1,2,4-triazine-3,5(2H,4H)-dione]","Plant response rating, Velvetleaf",[1]; 31 g ai/ha Postemergence,70
same,"Plant response rating, Velvetleaf",[1]; 31 g ai/ha Preemergence,0
same,"Plant response rating, Velvetleaf",[1]; 125 g ai/ha Postemergence,90
same,"Plant response rating, Velvetleaf",[1]; 125 g ai/ha Preemergence,0
same,"Plant response rating, Barnyardgrass",[2]; 31 g ai/ha Flood,0
same,"Plant response rating, Barnyardgrass",[2]; 62 g ai/ha Flood,0
same,"Plant response rating, Barnyardgrass",[2]; 125 g ai/ha Flood,0
same,"Plant response rating, Barnyardgrass",[2]; 250 g ai/ha Flood,15
same,"Plant response rating, Crabgrass, Large",[3]; 31 g ai/ha Postemergence,0
same,"Plant response rating, Crabgrass, Large",[3]; 31 g ai/ha Preemergence,0
same,"Plant response rating, Crabgrass, Large",[3]; 125 g ai/ha Postemergence,10
same,"Plant response rating, Crabgrass, Large",[3]; 125 g ai/ha Preemergence,0
same,"Plant response rating, Corn",[4]; 31 g ai/ha Postemergence,0
same,"Plant response rating, Corn",[4]; 31 g ai/ha Preemergence,0
same,"Plant response rating, Corn",[4]; 125 g ai/ha Postemergence,0
same,"Plant response rating, Corn",[4]; 125 g ai/ha Preemergence,0
same,"Plant response rating, Rice",[5]; 31 g ai/ha Flood,0
same,"Plant response rating, Rice",[5]; 62 g ai/ha Flood,0
same,"Plant response rating, Rice",[5]; 125 g ai/ha Flood,15
same,"Plant response rating, Rice",[5]; 250 g ai/ha Flood,60
same,"Plant response rating, Ducksalad",[6]; 31 g ai/ha Flood,0
same,"Plant response rating, Ducksalad",[6]; 62 g ai/ha Flood,0
same,"Plant response rating, Ducksalad",[6]; 125 g ai/ha Flood,50
same,"Plant response rating, Ducksalad",[6]; 250 g ai/ha Flood,65
same,"Plant response rating, Foxtail, Giant",[7]; 31 g ai/ha Postemergence,0
same,"Plant response rating, Foxtail, Giant",[7]; 31 g ai/ha Preemergence,0
same,"Plant response rating, Foxtail, Giant",[7]; 125 g ai/ha Postemergence,0
same,"Plant response rating, Foxtail, Giant",[7]; 125 g ai/ha Preemergence,0
same,"Plant response rating, Pigweed",[8]; 31 g ai/ha Postemergence,10
same,"Plant response rating, Pigweed",[8]; 31 g ai/ha Preemergence,0
same,"Plant response rating, Pigweed",[8]; 125 g ai/ha Postemergence,50
same,"Plant response rating, Pigweed",[8]; 125 g ai/ha Preemergence,0
same,"Plant response rating, Wheat",[9]; 31 g ai/ha Postemergence,0
same,"Plant response rating, Wheat",[9]; 31 g ai/ha Preemergence,0
same,"Plant response rating, Wheat",[9]; 125 g ai/ha Postemergence,10
same,"Plant response rating, Wheat",[9]; 125 g ai/ha Preemergence,0
same,"Plant response rating, Sedge, Umbrella",[10]; 31 g ai/ha Flood,0
same,"Plant response rating, Sedge, Umbrella",[10]; 62 g ai/ha Flood,0
same,"Plant response rating, Sedge, Umbrella",[10]; 125 g ai/ha Flood,50
same,"Plant response rating, Sedge, Umbrella",[10]; 250 g ai/ha Flood,65
same,"Plant response rating, Morningglory",[11]; 31 g ai/ha Postemergence,10
same,"Plant response rating, Morningglory",[11]; 31 g ai/ha Preemergence,0
same,"Plant response rating, Morningglory",[11]; 125 g ai/ha Postemergence,100
same,"Plant response rating, Morningglory",[11]; 125 g ai/ha Preemergence,0
same,"Plant response rating, Barnyardgrass",[12]; 31 g ai/ha Postemergence,0
same,"Plant response rating, Barnyardgrass",[12]; 31 g ai/ha Preemergence,0
same,"Plant response rating, Barnyardgrass",[12]; 125 g ai/ha Postemergence,10
same,"Plant response rating, Barnyardgrass",[12]; 125 g ai/ha Preemergence,0
